Experimental data from patent publication US4145554A, “3-Nitropyrazole derivatives” (Eli Lilly and Company, priority 1977, dated 1979).
In brackets after ≈: the same amount, converted by molar mass. Like-named read-outs stand apart in the source and are kept apart here.

Experiments:
Streptococcus sp. 80 = test: in vitro tube dilution test (MIC); format: cell-based; conditions: Streptococcus sp. 80, tube dilution; read-out: MIC
Text: Other compounds of our invention have also been tested in the tube dilution test and shown to have in vitro activity against a number of microorganisms. The table below reports tests of a number of exemplary compounds against exemplary microorganisms. The compounds are identified by their numbers in the listing above. The data are reported as the MIC in micrograms per milliliter against the named exemplary microorganisms.

large crabgrass = test: herbicidal activity, application to plants; format: in vivo; conditions: applied to foliage of growing plant at 1 lb./acre
Text: The herbicidal compounds of our invention have shown the ability to control undesired plants at levels as low as 1 lb./acre. Herbicidal activity is obtained when the 3-nitropyrazole herbicide is applied to the plants to be controlled in the conventional manner, by direct application as a spray or dry formulation to the plant or its supporting soil.

[1] = test system: Staphylococcus aureus sp. 1130; test: in vitro tube dilution test (MIC); format: cell-based; conditions: read-out: MIC
Salmonella dublin = test: in vitro tube dilution test (MIC); format: cell-based; conditions: Salmonella enterica; Salmonella dublin, tube dilution; read-out: MIC
Vibrio coli 3811 = test: in vitro tube dilution test (MIC); format: cell-based; conditions: Campylobacter coli; Vibrio coli 3811, tube dilution; read-out: MIC
Escherichia coli = test: in vitro tube dilution test (MIC); format: cell-based; conditions: tube dilution, read-out: MIC
Outline: (§1)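 Standard tube dilution test; MIC reported as micrograms of compound per milliliter.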

Mycoplasma gallisepticum = test: in vitro tube dilution test (MIC); format: cell-based; conditions: Mycoplasmoides gallisepticum; Mycoplasma gallisepticum, tube dilution; read-out: MIC
Outline: as §1

Erwinia amylovora = test: Fire blight of pear, in vivo greenhouse test
Protocol: An in vivo test was conducted against the fire blight organism, Erwinia amylovora. Plants infected with E. amylovora were sprayed with aqueous dispersions containing 100 ppm. and 500 ppm. of the test compounds. […] The compounds are identified below by their compound numbers in the above listing.

H. meleagridis = test: Blackhead in poultry, turkeys; format: in vivo
Protocol: One- to three-week-old chicks and turkey poults were obtained from homogeneous source flocks and allocated into treatment groups. Some groups were held as infected, untreated controls, and other groups were treated with 3-nitropyrazoles by administering the compounds in the birds' feed. Various concentrations of the pyrazoles were administered to determine the least concentration which protected the birds. A few days after the administration of medicated feed began, all of the birds were challenged by rectally administering a suspension of at least 5,000 H. meleagridis protozoa per chick. The challenge organisms had been originally obtained from infected chickens, and were grown in vitro to provide a supply of organisms for testing.
The birds were held for about seven days after the challenge was administered, during which time the administration of pyrazole-medicated feed was continued. Then all of the chicks, including the untreated, infected controls, were sacrificed and necropsied. The cecum and the liver of each bird were examined for characteristic H. meleagridis lesions.
For each compound, the lowest feed concentration which gave an active response is indicated. While feed consumption data were not taken during the tests, the birds ate at such a rate that a feed concentration of 0.02 percent is equivalent to a treatment rate of about 10 mg./kg./day.

Salmonella pullorum Ill. = test: in vitro tube dilution test (MIC); format: cell-based; conditions: Salmonella enterica
Text: (§2) Our compound, 1-(2-hydroxyethyl)-3-nitro-4-pyrazolecarboxamide, has been extensively tested in vitro to determine the range of microorganisms against which it is active. The table of data below reports the minimum inhibitory concentration (MIC) at which the compound is effective in controlling a variety of microorganisms in a standard tube dilution test system. The MIC is reported as micrograms of compound per milliliter.
(§3) The other preferred compounds of our invention have also been thoroughly tested in the in vitro tube dilution test.

Pseudomonas sp. = test: in vitro tube dilution test (MIC); format: cell-based
Text: as §2, §3

[2] = test system: Salmonella heidelburg 1593; test: in vitro tube dilution test (MIC); format: cell-based; conditions: Salmonella heidelburg 1593, tube dilution
Text: as §2, §3

Mycoplasma hyorhinis = test: in vitro tube dilution test (MIC); format: cell-based
Text: as §2, §3

[3] = test system: Salmonella typhimurium 1335; test: in vitro tube dilution test (MIC); format: cell-based; conditions: Salmonella enterica; Salmonella typhimurium 1335, tube dilution
Text: as §2, §3

[4] = test system: Mycoplasma gallisepticum 38502; test: in vitro tube dilution test (MIC); format: cell-based; conditions: Mycoplasmoides gallisepticum; Mycoplasma gallisepticum 38502, tube dilution
Text: as §3

[5] = test system: Staphylococcus aureus 3055; test: in vitro tube dilution test (MIC); format: cell-based; conditions: Staphylococcus aureus 3055, tube dilution
Text: as §3

Escherichia coli 0127 = test: in vitro tube dilution test (MIC); format: cell-based; conditions: Escherichia coli 0127, tube dilution
Text: as §3

Salmonella typhimurium = test: Salmonellosis in chickens, single injection to day-old chicks; format: in vivo; conditions: Salmonella enterica, TYPHIMURIUM, 168 h; single injection of 60 mg./kg.; seven days; read-out: Survival (converted)
Outline: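 Five day-old chicks per group received one injection of compound at 60 mg./kg., then were challenged next day by subcutaneous S. typhimurium at a dose lethal to most or all untreated controls. Read-out is survivor count, pooled over repeat groups, with untreated challenged controls run in each batch.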

S. typhimurium = test: Salmonella typhimurium in chickens, medicated feed; format: in vivo, chicks; conditions: 200 gm./ton feed; for Avg. Wt.: surviving chicks
avian E. coli = test: Colibacillosis in chickens, medicated feed; format: in vivo
P. multocida [6] = test: Mice infected with P. multocida, compound injected subcutaneously; format: in vivo
Protocol: A second test was conducted in much the same way, except that the 3-nitropyrazole was injected to the treated mice subcutaneously at the same time they were infected with the P. multocida culture.

Pasteurella multocida = test: in vitro tube dilution test (MIC); format: cell-based; conditions: tube dilution, read-out: MIC
Outline: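 Standard tube dilution test; MIC is the lowest compound concentration controlling growth, given in μg/mL.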

P. multocida [7] = test: Mice infected with P. multocida, compound in drinking water; format: in vivo; conditions: 7 days
Protocol: Some of the 3-nitropyrazoles were also administered to mice infected with P. multocida. Tests were conducted in which the pyrazoles were administered both by injection and in the drinking water.
The table below reports results of tests in which the compound was administered in the water. Groups of 10 standardized white mice were segregated, and each mouse was infected by injecting a broth culture of P. multocida subcutaneously. The administration of the test compounds was begun at the same time the mice were infected by adding a known amount of the test compound to the drinking water of the mice. One group of infected control mice received no treatment. The mice were observed, and the test was concluded at the end of 7 days. The number of mice in each group which survived the P. multocida infection was recorded.

[8] = test system: Trypanosoma cruzi (BHC/10 strain); test: use against Trypanosoma cruzi in rodents; format: in vivo; conditions: 12.5 mg./kg. for 10 days
Protocol: Some 3-nitropyrazoles have been used against Trypanosoma cruzi in rodents. The 3-nitro-1-vinyl-4-pyrazolecarboxamide killed 91 percent of T. cruzi of the BHC/10 strain when administered at 12.5 mg./kg. for 10 days.

[9] = Staphylococcus aureus sp. 1130, tube dilution
[10] = Staphylococcus aureus, SP.1130, Staphyloccocus 1130, tube dilution
[11] = 100 gm./ton, further test, about 5 weeks of age
[12] = 200 gm./ton, further test, about 5 weeks of age
[13] = 300 gm./ton feed, about 5 weeks old, 10^-2 dilution challenge, first test

MIC (Streptococcus sp. 80) | MIC [1, 9] | MIC (Escherichia coli) | MIC (Mycoplasma gallisepticum) | SMILES | MIC (Salmonella dublin) | MIC (Vibrio coli 3811) | Percent Control of fire blight (Erwinia amylovora; 100 ppm.) | Percent Control of fire blight (Erwinia amylovora; 500 ppm.) | MIC (Salmonella pullorum Ill.) | MIC (Pseudomonas sp.) | MIC [2] | MIC (Mycoplasma hyorhinis) | MIC [3] | MIC [4] | Avg. Wt. (avian E. coli; [11]) | E. coli Lesions (avian E. coli; [11]) | Mortality (avian E. coli; [11]) | Avg. Wt. (avian E. coli; [12]) | E. coli Lesions (avian E. coli; [12]) | Mortality (avian E. coli; [12]) | other results
100 mg/L (≈ 602 µM) | 100 mg/L (≈ 602 µM) | 100 mg/L (≈ 602 µM) | > 50 mg/L | CCn1cc(C#N)c([N+](=O)[O-])n1 [Compound 1, 1-ethyl-3-nitro-4-pyrazolecarbonitrile] | 100 mg/L (≈ 602 µM) | 12.5 mg/L (≈ 75.2 µM) | – | – | – | – | – | – | – | – | – | – | – | – | – | – | control of large crabgrass (large crabgrass): kills large crabgrass
– | – | – | – | C=CCn1cc(C(N)=O)c([N+](=O)[O-])n1 [Compound 16, 1-allyl-3-nitro-4-pyrazolecarboxamide] | 6.25 mg/L (≈ 31.9 µM) | 3.12 mg/L (≈ 15.9 µM) | 100% | 60% | < 1.56 mg/L | 12.5 mg/L (≈ 63.7 µM) | 25 mg/L (≈ 127 µM) | 50 mg/L (≈ 255 µM) | 6.25 mg/L (≈ 31.9 µM) | 50 mg/L (≈ 255 µM) | 1112 gm. | 40/40 | 16/40 | 1266 gm. | 31/40 | 11/40 | Active Level (lowest feed concentration which gave an active response) (H. meleagridis): .02%; MIC [5]: 10 mg/L (≈ 51 µM); MIC (Escherichia coli 0127): 100 mg/L (≈ 510 µM); MIC [1, 10]: 6.25 mg/L (≈ 31.9 µM); responders at 60 mg/kg (Salmonella typhimurium): 100%; Survival (S. typhimurium; Test B): 26/36; Avg. Wt. (S. typhimurium; Test B): 88 gm.; Survival (S. typhimurium; Test C): 25/48; Avg. Wt. (S. typhimurium; Test C): 64 gm.; E. coli Lesions (avian E. coli; [13]): 16/30; Mortality (avian E. coli; [13]): 0/30; Wt. (avian E. coli; [13]): 1090 gm.
– | – | – | – | CC(=O)OCCn1cc(C(N)=O)c([N+](=O)[O-])n1 [Compound 80, 2-(4-carbamoyl-3-nitropyrazol-1-yl)ethyl acetate] | 12.5 mg/L | 12.5 mg/L | 33% | 50% | < 1.56 mg/L | 25 mg/L | 12.5 mg/L | 50 mg/L | 12.5 mg/L | 25 mg/L | 1219 gm. | 38/40 | 10/40 | 1308 gm. | 31/40 | 6/40 | Survival (P. multocida [6]; 2.5 mg./kg. subcutaneous): 4/10; Survival (P. multocida [6]; 5.0 mg./kg. subcutaneous): 3/10; Survival (P. multocida [6]; 10.0 mg./kg. subcutaneous): 8/10; Survival (P. multocida [6]; 25.0 mg./kg. subcutaneous): 9/10; MIC (Pasteurella multocida): 25 mg/L; MIC [5]: 10 mg/L; MIC (Escherichia coli 0127): 100 mg/L; MIC [1, 10]: 3.12 mg/L; responders at 60 mg/kg (Salmonella typhimurium): 70%; Survival (S. typhimurium; Test C): 29/48; Avg. Wt. (S. typhimurium; Test C): 67 gm.; E. coli Lesions (avian E. coli; [13]): 9/30; Mortality (avian E. coli; [13]): 1/30; Wt. (avian E. coli; [13]): 1139 gm.; Survival (P. multocida [7]; 0.1 gm./gal. in drinking water): 9/10; Survival (P. multocida [7]; 0.2 gm./gal. in drinking water): 6/10
25 mg/L (≈ 137 µM) | 1.56 mg/L (≈ 8.56 µM) | 1.56 mg/L (≈ 8.56 µM) | 1.56 mg/L (≈ 8.56 µM) | C=Cn1cc(C(N)=O)c([N+](=O)[O-])n1 [Compound 81, 3-nitro-1-vinyl-4-pyrazolecarboxamide] | 1.56 mg/L (≈ 8.56 µM) | 25 mg/L (≈ 137 µM) | 100% | 60% | – | – | – | – | – | – | 1109 gm. | 23/40 | 5/40 | 918 gm. | 20/40 | 6/40 | MIC (Pasteurella multocida): 1.56 mg/L (≈ 8.56 µM); percent of T. cruzi killed [8]: 91%
